Drawing on ChEMBL document CHEMBL3091384, “Chemical probes to study ADP-ribosylation: synthesis and biochemical evaluation of inhibitors of the human ADP-ribosyltransferase ARTD3/PARP3” (J Med Chem, 2013), this text covers ΔTm for 43 compounds.

In experiment [1] the target is Poly [ADP-ribose] polymerase 1 (Homo sapiens, UniProt P09874).
Experiment [2] concerns the target T1, Protein mono-ADP-ribosyltransferase PARP3 (Homo sapiens) (UniProt Q9Y6F1).
T1 sequence (whole entry): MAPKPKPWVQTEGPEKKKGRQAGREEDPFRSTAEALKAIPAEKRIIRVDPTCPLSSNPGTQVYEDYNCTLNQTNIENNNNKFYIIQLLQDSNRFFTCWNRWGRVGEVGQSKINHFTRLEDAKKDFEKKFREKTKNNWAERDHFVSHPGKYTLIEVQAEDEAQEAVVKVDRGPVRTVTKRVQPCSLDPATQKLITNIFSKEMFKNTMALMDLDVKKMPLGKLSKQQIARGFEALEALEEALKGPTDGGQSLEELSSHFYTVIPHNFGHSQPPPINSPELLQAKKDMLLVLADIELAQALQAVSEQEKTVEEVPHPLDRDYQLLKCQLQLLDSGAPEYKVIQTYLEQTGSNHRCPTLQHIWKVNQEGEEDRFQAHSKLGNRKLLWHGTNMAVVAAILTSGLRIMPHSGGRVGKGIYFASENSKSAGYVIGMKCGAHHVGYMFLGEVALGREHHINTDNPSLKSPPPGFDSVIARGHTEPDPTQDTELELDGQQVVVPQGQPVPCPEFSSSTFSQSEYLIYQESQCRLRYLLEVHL

The species named for experiment [3] is Homo sapiens. Description: Binding affinity to […] (unknown origin) assessed as change in melting temperature by thermal stabilization assay.
Experiment [4] concerns Poly [ADP-ribose] polymerase 14, ARTD8/PARP14 (Homo sapiens).
Experiment [5] addresses Poly [ADP-ribose] polymerase 2 (Homo sapiens) (UniProt Q9UGN5).

Each structure is given as a SMILES string.

Poly [ADP-ribose] polymerase 1, sequence (P09874 whole entry): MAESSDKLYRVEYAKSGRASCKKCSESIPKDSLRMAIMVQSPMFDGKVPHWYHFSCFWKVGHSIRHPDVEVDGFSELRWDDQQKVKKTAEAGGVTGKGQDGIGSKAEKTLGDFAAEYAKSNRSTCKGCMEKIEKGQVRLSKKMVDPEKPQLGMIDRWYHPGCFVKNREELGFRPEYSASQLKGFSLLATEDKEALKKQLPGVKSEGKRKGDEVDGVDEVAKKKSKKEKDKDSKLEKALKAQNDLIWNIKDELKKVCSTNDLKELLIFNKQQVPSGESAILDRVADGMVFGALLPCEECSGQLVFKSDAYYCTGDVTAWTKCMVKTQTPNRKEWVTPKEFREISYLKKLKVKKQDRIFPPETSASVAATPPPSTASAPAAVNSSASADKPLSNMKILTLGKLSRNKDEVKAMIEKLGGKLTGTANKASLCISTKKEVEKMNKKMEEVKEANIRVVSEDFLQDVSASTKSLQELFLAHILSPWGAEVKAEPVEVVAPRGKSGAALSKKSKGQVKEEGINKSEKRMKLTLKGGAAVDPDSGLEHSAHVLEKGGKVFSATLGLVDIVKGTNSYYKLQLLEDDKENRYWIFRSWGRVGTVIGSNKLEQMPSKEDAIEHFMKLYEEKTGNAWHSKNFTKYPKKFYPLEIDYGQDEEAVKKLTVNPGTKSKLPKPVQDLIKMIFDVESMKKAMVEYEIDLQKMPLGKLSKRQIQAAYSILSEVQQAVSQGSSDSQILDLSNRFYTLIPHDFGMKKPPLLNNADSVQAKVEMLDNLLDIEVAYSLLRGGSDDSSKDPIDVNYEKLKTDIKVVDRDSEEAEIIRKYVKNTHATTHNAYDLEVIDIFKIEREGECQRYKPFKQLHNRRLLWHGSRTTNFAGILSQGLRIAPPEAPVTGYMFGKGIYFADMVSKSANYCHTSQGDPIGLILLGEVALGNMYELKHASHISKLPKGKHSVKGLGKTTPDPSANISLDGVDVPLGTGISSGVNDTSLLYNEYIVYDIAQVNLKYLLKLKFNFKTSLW
Poly [ADP-ribose] polymerase 2 (Homo sapiens), sequence (Q9UGN5 whole entry): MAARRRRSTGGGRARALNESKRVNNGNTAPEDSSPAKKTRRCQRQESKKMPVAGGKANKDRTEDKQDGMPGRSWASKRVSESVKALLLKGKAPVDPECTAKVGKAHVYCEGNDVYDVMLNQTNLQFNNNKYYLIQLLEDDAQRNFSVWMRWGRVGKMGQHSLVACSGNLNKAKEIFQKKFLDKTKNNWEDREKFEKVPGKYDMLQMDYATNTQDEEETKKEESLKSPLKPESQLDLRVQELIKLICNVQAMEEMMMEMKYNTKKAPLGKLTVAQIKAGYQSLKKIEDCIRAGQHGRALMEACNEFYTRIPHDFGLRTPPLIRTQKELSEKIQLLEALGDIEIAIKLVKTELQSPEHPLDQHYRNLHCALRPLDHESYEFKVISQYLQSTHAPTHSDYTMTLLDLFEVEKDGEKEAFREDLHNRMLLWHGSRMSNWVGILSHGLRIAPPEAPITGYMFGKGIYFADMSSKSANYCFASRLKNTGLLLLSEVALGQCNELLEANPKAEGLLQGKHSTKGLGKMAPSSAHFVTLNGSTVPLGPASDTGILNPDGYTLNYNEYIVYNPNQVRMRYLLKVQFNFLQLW

As for `Cc1ccc([C@H](C)NC(=O)CCc2nc3ccccc3c(=O)[nH]2)cc1C`, the ΔTm (usually the change in melting temperature against a reference sample) in experiment [1] is 0.22 °C; in experiment [2], 0.74 °C; in experiment [3] it was 0.22 °C; in experiment [4], -0.22 °C; in experiment [5], -0.47 °C.

On to `O=C(CCc1nc2ccccc2c(=O)[nH]1)N[C@H](CO)Cc1ccccc1`, for which the ΔTm in experiment [3] came to 0.6 °C.

On to `O=C(CCCc1nc2ccccc2c(=O)[nH]1)NC(c1ccccc1)c1ccccc1`, for which the shift in melting temperature (ΔTm) in experiment [1] is 0.44 °C; in experiment [2], 0.09 °C; in experiment [3], 0.41 °C; in experiment [4], 0.02 °C; in experiment [5], 0.53 °C.

`O=C(CCc1nc2ccccc2c(=O)[nH]1)NCc1ccccc1O`: the ΔTm in experiment [1] is 2.79 °C; in experiment [2], 6.31 °C; in experiment [3] it was 0.7 °C; in experiment [4], -0.27 °C; in experiment [5], 1.3 °C.

With `C[C@H](NC(=O)NCc1nc2ccccc2c(=O)[nH]1)c1ccccc1`, the shift in melting temperature (ΔTm) in experiment [1] is 0.88 °C; in experiment [2] it was 4.95 °C; in experiment [3], 0.39 °C; in experiment [4], -0.77 °C; in experiment [5] it was 0.33 °C.

Turning to `CC[C@@H](CO)NC(=O)CCc1nc2ccccc2c(=O)[nH]1`, in experiment [3], the ΔTm stood at 0.35 °C.

As for `O=C(CCc1nc2cc(Cl)ccc2c(=O)[nH]1)NC(c1ccccc1)c1ccccc1`, the ΔTm in experiment [1] stood at 0.11 °C; in experiment [2], 0.35 °C; in experiment [3], 0.2 °C; in experiment [4] it was 0.82 °C; in experiment [5], 0.83 °C.

As to `NC(=O)[C@H](Cc1ccccc1)NC(=O)CCc1nc2ccccc2c(=O)[nH]1`, the ΔTm in experiment [3] is 1.08 °C.

Take `CC(NC(=O)CCc1nc2ccccc2c(=O)[nH]1)c1ccncc1` (racemic): the shift in melting temperature (ΔTm) in experiment [1] is 2.68 °C; in experiment [2] it was 5.02 °C; in experiment [3], 0.3 °C; in experiment [4], 0 °C; in experiment [5], 1.82 °C.

For `O=C(CCc1nc2ccccc2c(=O)[nH]1)N1CCc2ccccc2C1`, the ΔTm in experiment [1] is 1.15 °C; in experiment [2], 4.73 °C; in experiment [3] it was 0.14 °C; in experiment [4] it was -0.07 °C; in experiment [5], -0.17 °C.

`COc1ccccc1CNC(=O)CCc1nc(O)c2ccccc2n1`: the thermal shift (ΔTm) worked out at 1.45 °C in experiment [1], 2.96 °C in experiment [2], 0.54 °C in experiment [3] and 1.14 °C in experiment [5].

As to `O=C(CCc1nc2ccccc2c(=O)[nH]1)NC(c1ccc(Cl)cc1)C1CC1` (racemic), the shift in melting temperature (ΔTm) is 2.17 °C in experiment [1]; 0.45 °C in experiment [2]; 0.52 °C in experiment [3]; -0.28 °C in experiment [4]; 0.77 °C in experiment [5].

As to `C[C@H](NC(=O)CCc1nc2ccccc2c(=O)[nH]1)c1ccccc1F`, the ΔTm was 0.36 °C in experiment [1]; 0.42 °C in experiment [2]; 0.12 °C in experiment [3]; 0.12 °C in experiment [4]; -0.46 °C in experiment [5].

For the compound `O=C(CCc1nc2ccccc2c(=O)[nH]1)NC(c1ccccc1)c1ccccc1`, the ΔTm was 0.2 °C in experiment [1]; 0.2 °C in experiment [2]; 0.22 °C in experiment [3]; 0.45 °C in experiment [4]; 0.3 °C in experiment [5].

Regarding `O=C(CCc1nc2ccccc2c(=O)[nH]1)NCCc1ccccc1`, the ΔTm in experiment [1] turned out to be 2.83 °C; in experiment [2] it was 6.23 °C; in experiment [3] it was 0.49 °C; in experiment [4], 0.2 °C; in experiment [5], 1.57 °C.

Regarding `O=C(CCc1nc2ccccc2c(=O)[nH]1)N[C@@H](Cc1ccccc1)C(=O)O`, the ΔTm in experiment [1] was 0.24 °C; in experiment [2] it was 1.36 °C; in experiment [3], 0.22 °C; in experiment [4], -0.37 °C; in experiment [5], -0.32 °C.

With `O=C(CCc1nc2ccccc2c(=O)[nH]1)NCc1ccccc1Cl`, the shift in melting temperature (ΔTm) in experiment [1] was found to be 1.85 °C; in experiment [2], 5.39 °C; in experiment [3], 0.48 °C; in experiment [4], 0.26 °C; in experiment [5], 1.64 °C.

Turning to `CCC(=O)[C@H](Cc1ccccc1)NC(=O)CCc1nc2ccccc2c(=O)[nH]1`, the ΔTm in experiment [1] worked out at 1.93 °C; in experiment [2], 5.71 °C; in experiment [3], 0.07 °C; in experiment [4] it was 0.13 °C; in experiment [5], 0.98 °C.

Take `C[C@H](NC(=O)CCCc1nc2ccccc2c(=O)[nH]1)c1ccccc1`: the shift in melting temperature (ΔTm) was 1.51 °C in experiment [1]; 4.58 °C in experiment [2]; 0.52 °C in experiment [3]; -0.21 °C in experiment [4]; 0.37 °C in experiment [5].

In the case of `CC(C)(C)CC(NC(=O)CCc1nc2ccccc2c(=O)[nH]1)c1ccccc1` (racemic), the ΔTm was determined as 0.9 °C in experiment [1]; 5.96 °C in experiment [2]; 0.44 °C in experiment [3]; 0.16 °C in experiment [4]; 0.74 °C in experiment [5].

In the case of `CON(C)C(=O)[C@H](Cc1ccccc1)NC(=O)CCc1nc2ccccc2c(=O)[nH]1`, the thermal shift (ΔTm) in experiment [1] stood at 1.37 °C; in experiment [2], 5.94 °C; in experiment [3], 0.11 °C; in experiment [4], 0.32 °C; in experiment [5], 0.33 °C.

For the compound `O=C(CCc1nc2ccccc2c(=O)[nH]1)NCc1ccccc1`, the ΔTm in experiment [1] was 2.16 °C; in experiment [2] it was 2.63 °C; in experiment [3] it was 0.32 °C; in experiment [4], -0.28 °C; in experiment [5] it was 1.77 °C.

`O=C(CCc1nc2ccccc2c(=O)[nH]1)N[C@H](CO)c1ccccc1`: the thermal shift (ΔTm) in experiment [1] amounted to 2.83 °C; in experiment [2], 3.57 °C; in experiment [3] it was 0.82 °C; in experiment [4] it was 0.38 °C; in experiment [5], 1.64 °C.

As to `CC(NC(=O)CCc1nc2ccccc2c(=O)[nH]1)c1ccccn1` (racemic), in experiment [3], the thermal shift (ΔTm) came out at 0 °C.

For the compound `C[C@@H](NC(=O)CCCc1nc2ccccc2c(=O)[nH]1)c1ccccc1`, the thermal shift (ΔTm) in experiment [1] was 1.56 °C; in experiment [2], 4.27 °C; in experiment [3] it was 1.37 °C; in experiment [4], -0.05 °C; in experiment [5], 0.21 °C.

In the case of `O=C(CCc1nc2ccccc2c(=O)[nH]1)NCc1ccc([N+](=O)[O-])cc1`, the ΔTm in experiment [1] was 4 °C; in experiment [2], 3.29 °C; in experiment [3], 0.97 °C; in experiment [4] it was -0.11 °C; in experiment [5], 0.53 °C.

With `O=C(CCCc1nc2ccccc2c(=O)[nH]1)N[C@H](CO)c1ccccc1`, the ΔTm is 2.9 °C in experiment [1]; 3.22 °C in experiment [2]; 1.05 °C in experiment [3]; 0.53 °C in experiment [4]; 1.84 °C in experiment [5].

Regarding `C[C@H](NC(=O)CCc1nc2ccccc2c(=O)[nH]1)c1cccc(C(F)(F)F)c1`, the ΔTm was 0.25 °C in experiment [1]; 0.69 °C in experiment [2]; 0.23 °C in experiment [3]; -0.37 °C in experiment [4]; -0.6 °C in experiment [5].

For `C[C@@H](NC(=O)CCc1nc2ccccc2c(=O)[nH]1)c1ccccc1`, in experiment [3], the thermal shift (ΔTm) stood at 0.35 °C.

In the case of `C[C@@H](NC(=O)CCc1nc2cc(Cl)ccc2c(=O)[nH]1)c1ccccc1`, the thermal shift (ΔTm) amounted to 0.92 °C in experiment [1]; 0.16 °C in experiment [2]; 0.43 °C in experiment [3]; 0.05 °C in experiment [4]; 1.28 °C in experiment [5].

`C[C@H](NC(=O)CCc1nc2ccccc2c(=O)[nH]1)c1cccc(F)c1`: the ΔTm in experiment [1] was 1 °C; in experiment [2], 0.75 °C; in experiment [3], 0.13 °C; in experiment [4], -0.18 °C; in experiment [5], 0.06 °C.

In the case of `COC(=O)[C@H](Cc1ccccc1)NC(=O)CCc1nc2ccccc2c(=O)[nH]1`, the thermal shift (ΔTm) in experiment [3] is 0.5 °C.

For the compound `O=C(/C=C/c1nc2ccccc2c(=O)[nH]1)N[C@H](CO)Cc1ccccc1`, the shift in melting temperature (ΔTm) in experiment [1] was 0.41 °C; in experiment [2], 6.25 °C; in experiment [3] it was 0.08 °C; in experiment [4], -0.7 °C; in experiment [5] it was -0.17 °C.

Turning to `O=C(CCCc1nc2ccccc2c(=O)[nH]1)N[C@@H]1CCc2ccccc21`, the shift in melting temperature (ΔTm) in experiment [1] was found to be 1.52 °C; in experiment [2], 3.46 °C; in experiment [3], 1.2 °C; in experiment [4] it was 0.13 °C; in experiment [5], 2.29 °C.

In the case of `C[C@H](NC(=O)CCc1nc2ccccc2c(=O)[nH]1)c1ccc(Cl)cc1`, the ΔTm is 0.04 °C in experiment [1]; 0.12 °C in experiment [2]; 0.18 °C in experiment [3]; 0.04 °C in experiment [4]; -0.59 °C in experiment [5].

Regarding `CC[C@H](NC(=O)CCc1nc2ccccc2c(=O)[nH]1)c1ccccc1`, the ΔTm in experiment [3] stood at 0.33 °C.

On to `C[C@@H](CO)NC(=O)CCc1nc2ccccc2c(=O)[nH]1`, for which the thermal shift (ΔTm) in experiment [3] worked out at 0.56 °C.

With `CC(NC(=O)CCc1nc2ccccc2c(=O)[nH]1)c1ccc(-n2ccnc2)cc1` (racemic), the shift in melting temperature (ΔTm) in experiment [3] came to 0.64 °C.

For the compound `C[C@@H](NC(=O)CCc1nc2ccccc2c(=O)[nH]1)c1ccccn1`, in experiment [3], the ΔTm was found to be 0.12 °C.

In the case of `C[C@H](NC(=O)CCc1nc2ccccc2c(=O)[nH]1)c1ccccn1`, the ΔTm in experiment [3] is 0.13 °C.

Consider `CC(NC(=O)CCc1nc2ccccc2c(=O)[nH]1)c1ccc(S(N)(=O)=O)cc1` (racemic), for which the ΔTm in experiment [3] is 1.94 °C.

In the case of `C[C@H](NC(=O)CCc1nc2ccccc2c(=O)[nH]1)c1ccccc1`, in experiment [3], the thermal shift (ΔTm) amounted to 0.13 °C.

For `O=C(CCc1nc(O)c2ccccc2n1)NCc1ccccn1`, the shift in melting temperature (ΔTm) in experiment [1] was found to be 1.93 °C; in experiment [2] it was 4.83 °C; in experiment [3], 0.15 °C; in experiment [5] it was 1.48 °C.
